In US7049342B2, “Substituted phenylpropionic acid derivatives” (Kyorin Pharmaceutical Co., Ltd., priority 2000, dated 2006):
pEC50: −log10 of the molar value.

Experiments:
human type PPARα = target: T1, human type PPARα (Homo sapiens, UniProt Q07869); experiment: Test of transcriptional activation on peroxisome proliferator-activated receptor α; assay type: cell-based; settings: CHO cells cotransfected with yeast DNA-binding domain/human PPARα ligand-binding domain fusion receptor plasmid, reporter plasmid and Renilla luciferase internal standard; luciferase measured after 24 hours; read-out: Transcription-activating function EC50
T1 construct: expressed in transfected cells; host or cells: CHO cells
T1 sequence (Q07869 239-466 limits assumed): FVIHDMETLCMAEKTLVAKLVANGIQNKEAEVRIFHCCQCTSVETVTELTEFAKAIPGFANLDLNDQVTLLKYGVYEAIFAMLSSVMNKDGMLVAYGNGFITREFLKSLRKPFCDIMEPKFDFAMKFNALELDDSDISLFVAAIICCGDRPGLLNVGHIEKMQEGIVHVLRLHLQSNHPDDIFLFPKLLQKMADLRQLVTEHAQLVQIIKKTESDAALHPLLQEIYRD
Text: Test of Transcriptional Activation on Peroxisome Proliferator-Activated Receptor α
To CHO cells cultured in a Dulbecco-modified Eagle's medium containing 10% delipid fetal calf serum (FCS/DMEM), receptor plasmid that expresses fused protein of DNA-binding domain being transcription factor of yeast with ligand-binding domain of human type PPARα (Biochemistry, 1993, 32, 5598), its reporter plasmid (STRATAGENE Corp.) and luciferase plasmid of Renilla (Promega Corp.) as internal standard were cotransfected with lipofectamine in the serum-free state. Thereafter, testing compound was added in the 10% SFCS/DMEM and both luciferase activities were measured after 24 hours, which were corrected with internal standard.

melting point [°C] | pEC50 (human type PPARα) | SMILES
121 to 123 | – | CCC(Cc1ccc(OC)c(CC(=O)Nc2ccc(C(F)(F)F)cc2)c1)C(=O)O (single isomer, unassigned; (-)) [Example 121 (−), (−)-2-ethyl-3-[4-methoxy-3-[[N-[4-(trifluoromethyl)phenyl]carbamoyl]methyl]-phenyl]propanoic acid]
– | 5.89 | CCCCC/C=C\C/C=C\C=C\[C@@H](O)C/C=C\CCCC(=O)O [(8S) HETE, reference compound]
124 to 125 | – | COc1ccc(CC(OC)C(=O)O)cc1NC(=O)Cc1ccc(C(F)(F)F)cc1 (stereo not shown) [Example 39, 2-Methoxy-3-[4-methoxy-3-[2-[4-(trifluoromethyl)phenyl]acetylamino]phenyl]propanoic acid]
177 | 6.89 | COc1ccc(CCC(=O)O)cc1NC(=O)Cc1ccc(-c2ccccc2)cc1 [Example 44]
– | 7.30 | CCC(Cc1ccc(OC)c(NC(=O)Cc2ccc(OCc3ccccc3)cc2)c1)C(=O)O (stereo not shown) [Example 46]
– | 6.80 | COc1ccc(CC(OC)C(=O)O)cc1NC(=O)Cc1ccc(Oc2ccccc2)cc1 (stereo not shown) [Example 70]
136 to 137 | 7.82 | CCC(Cc1ccc(OC)c(CC(=O)Nc2ccc(C(F)(F)F)cc2)c1)C(=O)O (stereo not shown) [Example 88, 2-Ethyl-3-[4-methoxy-3-[[N-[4-(trifluoromethyl)phenyl]carbamoyl]methyl]phenyl]propanoic acid]
64 to 66 | – | CCC(Cc1ccc(OC)c(OCCc2ccc(C(F)(F)F)cc2)c1)C(=O)O (stereo not shown) [Example 120, 2-Ethyl-3-[4-methoxy-3-[2-[4-(trifluoromethyl)phenyl]ethoxy]phenyl]propanoic acid]
